In PubChem BioAssay (NCI):
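Growth conditions: 96-well plates. Treatment: test compound, 48 hours, 5 concentrations. Analysis: linear interpolation between bracketing concentrations; unreached endpoints set to highest concentration. Here, GI50 denotes the concentration required for 50% inhibition of growth. TGI marks complete inhibition of growth.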

What was measured:
Assay in all cases: inhibition of tumour cell growth, NCI panel, 48 h
SK-MEL-2 melanoma = test system: SK-MEL-2 melanoma
RPMI-8226 leukemia = test system: RPMI-8226 leukemia
NCI-H226 lung = test system: NCI-H226 lung
A549 NSCLC = test system: A549 NSCLC
SK-MEL-28 melanoma = test system: SK-MEL-28 melanoma
MCF7 breast = test system: MCF7 breast
A498 renal = test system: A498 renal
HCT-116 colon = test system: HCT-116 colon
SF-295 CNS = test system: SF-295 CNS
NCI/ADR-RES ovarian = test system: NCI/ADR-RES ovarian

SMILES | GI50 (SK-MEL-2 melanoma) [µM] | TGI (SK-MEL-2 melanoma) [µM] | GI50 (RPMI-8226 leukemia) [µM] | TGI (RPMI-8226 leukemia) [µM] | GI50 (NCI-H226 lung) [µM] | TGI (NCI-H226 lung) [µM] | GI50 (A549 NSCLC) [µM] | TGI (A549 NSCLC) [µM] | GI50 (SK-MEL-28 melanoma) [µM] | TGI (SK-MEL-28 melanoma) [µM] | GI50 (MCF7 breast) [µM] | TGI (MCF7 breast) [µM] | GI50 (A498 renal) [µM] | TGI (A498 renal) [µM] | GI50 (HCT-116 colon) [µM] | TGI (HCT-116 colon) [µM] | GI50 (SF-295 CNS) [µM] | TGI (SF-295 CNS) [µM] | GI50 (NCI/ADR-RES ovarian) [µM] | TGI (NCI/ADR-RES ovarian) [µM]
Cc1cccc2c3c(sc12)C(c1ccc(F)cc1)C(C#N)=C(N)O3 (stereo not given) | 1.7 | 21.6 | 0.048 | 8.31 | 0.239 | 3.9 | 0.135 | 14.1 | 1.97 | 20.7 | 0.0332 | 11.1 | 0.0192 | 0.318 | 0.052 | 3.43 | 0.0284 | 0.329 | 0.0446 | 4.14
CN(C)c1ccc(/C=N/S(=O)(=O)c2ccc(-n3c(-c4ccccc4)nc4c(Br)cc(Br)cc4c3=O)cc2)cc1 | 23.6 | > 96.1 | 4.27 | > 96.4 | 53.8 | > 100 | 34 | > 100 | 43.6 | > 100 | 28.8 | > 78 | 32.5 | > 93.7 | 33.2 | > 100 | 35.5 | > 100 | 44.6 | > 100
CC(=O)O[C@H]1CC[C@@]2(C)C(=C/C(=N/OCCN3CCCC3)[C@H]3[C@@H]4CC[C@H](OC(C)=O)[C@@]4(C)CC[C@@H]32)C1 | 26.3 | 65 | 22 | 53.3 | > 100 | > 100 | 63.3 | > 100 | 31.2 | 64.1 | 53.4 | > 100 | 76.7 | > 100 | 27.8 | > 100 | 26.1 | 66.1 | > 100 | > 100
COC(=O)C(C(=O)OC)C(Br)C(Br)C(Br)c1ccccc1 (stereo not given) | 5.92 | 19.2 | 2.68 | 7.8 | 15.1 | 29.5 | 16.8 | 32.6 | 12.5 | 25.3 | 2.43 | 9.68 | 15.5 | 33.1 | 2 | 3.82 | 18.9 | 37.3 | 17.8 | 42.4
CC(=O)OC1=CC2(OC(C)=O)CC(C)(C)C1C1C(=O)C=CC(=O)C12 (stereo not given) |  | > 100 |  | > 100 |  | > 100 |  | > 100 |  | > 100 |  | > 100 |  | > 100 |  | > 89.4 |  | > 100 |  | > 100
Cn1cc(C2=C(Nc3ccccc3)C(=O)NC2=O)c2ccccc21 | > 25 | > 25 | > 25 | > 25 | > 25 | > 25 | > 25 | > 25 | > 25 | > 25 | > 25 | > 25 | > 25 | > 25 | 16.4 | > 25 | > 25 | > 25 | > 25 | > 25
C[C@@H](CO)NC(=O)c1cc(-c2ccc(Cl)cc2)nn(-c2cnn(C)c2)c1=O | 59.9 | > 100 | 20.5 | > 100 | 16.4 | 35.1 | 20.3 | 67.7 | 28.4 | 82.1 | 25.7 | > 100 | 3.01 | 62.3 | 19.1 | > 100 | 16.4 | 50.7 | 16.7 | 71.9
CC(=O)Nc1n[n+]([O-])c2cc(C)ccc2[n+]1[O-] |  | 26.5 |  | > 100 |  | 27.8 |  | 12.3 |  | 44.2 |  | 3.66 |  | 19.4 |  | 13.5 |  | 12.6 |  | > 44.7
COc1cnc2c(c1)C(=O)c1c-2n(CCCN2CCC(O)CC2)c(=O)c2cc(Cl)ccc12 | 17.4 | 33.4 | 0.947 | 5.19 | 0.662 | 23.6 | 0.48 | 2.34 | 16.7 | 35.7 | 0.0422 | 1.54 | 0.704 | 21.8 | 0.0987 | 2.18 | 0.165 | 1.67 | 0.167 | 2.31
CCSC[C@@H]1C[C@](O)(c2ccc(F)cc2)[C@@H](c2ccc(F)cc2)O1 | 19.8 | 42 | 14.9 | 36.1 | 17.8 | 38.8 | 18.7 | 44 | 18.3 | 33.3 | 17.1 | 34.8 | 19 | 33.1 | 12.1 | 29.2 | 15.3 | 31.6 | 21.3 | 51
CC1(C)O[C@@H]2C[C@H]3[C@@H]4C[C@H](F)C5=CC(=O)C=C[C@]5(C)[C@@]4(F)[C@@H](O)C[C@]3(C)[C@]2(C(=O)CO)O1 |  | > 100 |  | > 100 |  | > 100 |  | > 100 |  | > 100 |  | > 100 |  | > 100 |  | > 100 |  | > 100 |  | > 100
CN(CCCCCl)P(=O)(OCc1ccc([N+](=O)[O-])o1)OCC1OC(n2cnc([N+](=O)[O-])c2N)C(O)C1O (stereo not given) | > 100 | > 100 | > 100 | > 100 | > 100 | > 100 | > 100 | > 100 | > 100 | > 100 | 54.8 | > 100 | > 100 | > 100 | > 100 | > 100 | > 100 | > 100 | > 100 | > 100
NC1(Cc2ccc(Cl)cc2)CCN(c2ncnc3[nH]ccc23)CC1 | 14.6 | 31 | 4.37 | 26.5 | 6.96 | 25.1 | 5.02 | 21.6 | 6.63 | 19.8 | 4.1 | 17.6 | 0.546 | 4.58 | 5.18 | 38.7 | 1.48 | 13.5 | 9.97 | 26.5
Cc1cc(O)c(C2=NN(c3ccc(S(N)(=O)=O)cc3)C(/C=C/c3ccccc3)C2)cc1Cl (stereo not given) | 16.8 | 58.2 | 4.95 | 20.6 | 5.21 | 19.2 | 11 | 30.8 | 10.9 | 23.8 | 3.93 | 16.1 | 14.9 | 42.4 | 2.4 | 14.6 | 2.36 | 11.9 | 9.26 | 22.7
O=C(O)c1c(Br)c(Br)c(Br)c(Br)c1C1c2ccc(O)cc2Oc2cc(O)ccc21 |  | > 100 |  | > 100 |  | > 100 |  | > 100 |  | > 100 |  | > 100 |  | > 100 |  | > 100 |  | > 100 |  | > 100
CC(=O)/C=C/c1ccc(OCc2ccc(Cl)cc2)cc1 | 473 | > 1000 | 237 | > 1000 | > 1000 | > 1000 | > 1000 | > 1000 | 400 | > 1000 | 644 | > 1000 | 254 | > 1000 | > 1000 | > 1000 | 679 | > 1000 | 395 | > 1000
COc1cc(Cl)cc(-c2nn(-c3cccc(NC(=O)Nc4ccc(Cl)c(Cl)c4)c3)cc2-c2ccncc2)c1 | 1.64 | 3.74 | 0.652 | 3.37 | 3.06 | > 100 | 1.48 | 15.3 | 2.96 | 36.8 | 2.56 | 13.2 | 2.52 | 90.9 | 2.02 | > 100 | 1.77 | 7.21 | 2.34 | 24.9
Cc1nc2cc(Nc3nc(Nc4ccc(F)cc4)nc(N4CCOCC4)n3)ccc2n1Cc1ccccc1 | 2.49 | 4.94 | 2.19 | 5.86 | 5.79 | 24.2 | 3.2 | 14.2 | 3.17 | 9.6 | 3.23 | 13.8 | 1.3 | 4.57 | 1.98 | 4 | 3.01 | 9.03 | 5.22 | 45.4
CN(C)c1cccc(F)c1C(=O)NC(=O)Nc1ccc(Cl)cc1 |  | > 67.9 |  | > 36.6 |  | > 100 |  | > 100 |  | > 100 |  | > 100 |  | > 74.8 |  | > 100 |  | > 21.4 |  | > 44.4
CC1=Nc2c([nH]c(=S)[nH]c2=O)NC(c2c(Cl)cccc2Cl)C1 (stereo not given) |  | 32.9 |  | 4.04 |  | 15 |  | 15 |  | 6.26 |  | 3.12 |  | 6.68 |  | 1.59 |  | 4.41 |  | 0.412
Cc1[nH]c2cc(F)ccc2c1-c1nc2c3cccnc3c3ncccc3c2[nH]1 | 0.504 | 1.75 | 0.771 | 2.91 | 0.168 | 0.812 | 0.381 | 2.35 | 0.239 | 1.72 | 0.319 | 1.65 | 0.263 | 1.06 | 0.164 | 1.5 | 0.253 | 0.818 | 0.55 | 5.37
COc1cc(C)c2sc3ccccc3c(=O)c2c1NCCN(C)C | 6.64 | 19.6 | 2.85 | 8.87 | 2.3 | 6.81 | 4.05 | 15.7 | 1.83 | 3.42 | 2.4 | 10.2 | 8.83 | 22.1 | 3.73 | 13.6 | 6.25 | 19.5 | 12.4 | 27
COc1ccc(C(=O)c2sc3nc(-c4cccs4)ccc3c2N)cc1OC | 3.29 | 19.2 | 5.45 | > 100 | 17.9 | > 100 | 4.71 | > 100 | 4.98 | 70.4 | 2.79 | > 100 | 2 | > 100 | 5.06 | > 100 | 3.07 | 18.2 | 3.61 | > 100
CCOC(=O)Nc1cc2ccccc2c(N=Nc2ccccc2)c1O |  | > 100 |  | > 100 |  | > 100 |  | > 100 |  | > 100 |  | > 100 |  | > 100 |  | > 100 |  | > 100 |  | > 100
COCCOCCOCc1n(Cc2ccc3ccccc3n2)c2ccccc2[n+]1Cc1ccc2ccccc2n1 | 0.447 | 2.39 | 0.138 | 12.4 | 2.44 | 18.4 | 3.21 | 69.5 | 0.759 | 14.5 | 0.369 | 11.1 | 2.48 | 7.74 | 1.26 | 11.7 | 1.69 | 8.19 | > 100 | > 100
C=Cn1c([N+](=O)[O-])cnc1/C=C/c1ccc(C(=O)OCCN2CCOCC2)cc1 |  | > 100 |  | 78.4 |  | > 100 |  | > 100 |  | > 100 |  | > 100 |  | > 100 |  | > 100 |  | > 100 |  | > 100
